Measured values taken from PMC10357585 (Biochemistry, 2023).
Marks after values point to notes of the source that are not given here.

Tests used:
TcHGXPRT [1] = target: T1, TcHGXPRT (Trypanosoma cruzi, UniProt Q4DRC3); assay: Dead-end inhibition studies of TcHGXPRT; assay type: biochemical
T1 sequence (Q4DRC3 1-231): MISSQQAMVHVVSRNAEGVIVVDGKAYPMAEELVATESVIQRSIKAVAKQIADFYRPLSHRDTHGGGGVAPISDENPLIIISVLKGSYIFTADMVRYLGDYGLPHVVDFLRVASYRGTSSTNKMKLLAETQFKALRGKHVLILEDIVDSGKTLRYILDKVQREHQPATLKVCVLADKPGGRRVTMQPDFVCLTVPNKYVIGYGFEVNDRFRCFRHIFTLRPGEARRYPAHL

TcA (HGPRT) = conditions: variable 6-oxopurine, PRPP 1 mM, ref Glockzin et al., 2022.[43]; cited from earlier work
TcHGPRT = conditions: variable substrate PRPP (20–215 μM); ref Wenck et al., 2004.[30]; cited from earlier work
TcHGXPRT [2] = target: T1, TcHGXPRT; assay: Initial rate studies of TcHGXPRT, GMP biosynthesis; assay type: biochemical; conditions: for kcat: GMP biosynthesis; for Ki: Ki,PRPP
TcHGXPRT [3] = target: T1, TcHGXPRT; assay: Product inhibition studies of TcHGXPRT; assay type: biochemical; conditions: PRPP 1 mM
PfHGXPRT = conditions: read-out: apparent Km, Xan as substrate; cited from earlier work
[4] = variable substrate Guanine (10–300 μM) at fixed PRPP levels
[5] = variable substrate PRPP (1–78 μM) at fixed Gua levels

O=c1[nH]c(=O)c2[nH]ccc2[nH]1 [9-deazaxanthine]
Ki (TcHGXPRT [1]): 70 ± 10 µM | Inhibition pattern (TcHGXPRT [1]; 9-deazaxanthine (0–250 μM) vs. variable Xan (3–100 μM), PRPP 1 mM): C ^e | Inhibition pattern (TcHGXPRT [1]; 9-deazaxanthine (0–600 μM) vs. variable PRPP (23–750 μM), Xan 120 μM): UC ^e | Kii (TcHGXPRT [1]; 9-deazaxanthine vs. variable PRPP, Xan 120 μM, 37 °C, pH 8.3, 12 mM MgCl2): 490 ± 40 µM

O=c1[nH]cnc2nc[nH]c12 [Hx, hypoxanthine]
Km (TcA (HGPRT)): 13 ± 4 µM | kcat (TcA (HGPRT)): 32 ± 1 ^b s^–1

Nc1nc2nc[nH]c2c(=O)[nH]1 [Gua, guanine]
Km (TcA (HGPRT)): 19 ± 1 µM | kcat (TcA (HGPRT)): 32 ± 1 ^b s^–1 | KGua (TcHGPRT): 12 ± 1 ^d μM | kcat/KGua (TcHGPRT): 2650 ^d × 10^3 M^–1 s^–1 | kcat (TcHGXPRT [2]; [4]): 0.46 ± 0.01 s^–1

O=P(O)(O)OP(=O)(O)O [PPi, pyrophosphate]
Inhibition pattern (TcHGXPRT [3]; PPi (0–200 μM) vs. variable Xan (2.5–150 μM)): NC ^e | Kii (TcHGXPRT [3]; PPi vs. variable Xan): 1400 ± 400 µM | Ki (TcHGXPRT [3]; read-out: Kis, PPi vs. variable Xan): 190 ± 40 µM

O=c1[nH]c(=O)c2nc[nH]c2[nH]1 [Xan, xanthine]
Km (TcA (HGPRT)): 160 ± 40 µM | kcat (TcA (HGPRT)): 0.005 ± 0.0006 ^b s^–1 | Km (PfHGXPRT): 189 to 420 µM

O=P(O)(O)OC[C@H]1O[C@H](OP(=O)(O)OP(=O)(O)O)[C@H](O)[C@@H]1O [PRPP, 5-phospho-D-ribose 1-pyrophosphate]
KPRPP (TcHGPRT): 32 ± 5 ^d μM | kcat/KPRPP (TcHGPRT): 1010 ^d × 10^3 M^–1 s^–1 | kcat (TcHGXPRT [2]; [5]): 0.44 ± 0.02 s^–1 | Ki (TcHGXPRT [2]; [4]): 0.7 ± 0.2 µM | Ki (TcHGXPRT [2]; [5]): 0.6 ± 0.3 µM
